In patent US7057048B2, “Androgen receptor antagonists” (Warner Lambert Company LLC, priority 2003, dated 2006):
pIC50: −log10 of the molar value.

These molecules were tested against T1, androgen receptor (Homo sapiens, UniProt P10275) (assay: AR Antagonist Cell Assay (MMTV-luciferase reporter, DHT-stimulated)). Details: MDA-MB453-MMTV clone 54-19 cells, inhibition of induction by 100 pM DHT, 17 hr.
T1 sequence (P10275 1-920 Q868H): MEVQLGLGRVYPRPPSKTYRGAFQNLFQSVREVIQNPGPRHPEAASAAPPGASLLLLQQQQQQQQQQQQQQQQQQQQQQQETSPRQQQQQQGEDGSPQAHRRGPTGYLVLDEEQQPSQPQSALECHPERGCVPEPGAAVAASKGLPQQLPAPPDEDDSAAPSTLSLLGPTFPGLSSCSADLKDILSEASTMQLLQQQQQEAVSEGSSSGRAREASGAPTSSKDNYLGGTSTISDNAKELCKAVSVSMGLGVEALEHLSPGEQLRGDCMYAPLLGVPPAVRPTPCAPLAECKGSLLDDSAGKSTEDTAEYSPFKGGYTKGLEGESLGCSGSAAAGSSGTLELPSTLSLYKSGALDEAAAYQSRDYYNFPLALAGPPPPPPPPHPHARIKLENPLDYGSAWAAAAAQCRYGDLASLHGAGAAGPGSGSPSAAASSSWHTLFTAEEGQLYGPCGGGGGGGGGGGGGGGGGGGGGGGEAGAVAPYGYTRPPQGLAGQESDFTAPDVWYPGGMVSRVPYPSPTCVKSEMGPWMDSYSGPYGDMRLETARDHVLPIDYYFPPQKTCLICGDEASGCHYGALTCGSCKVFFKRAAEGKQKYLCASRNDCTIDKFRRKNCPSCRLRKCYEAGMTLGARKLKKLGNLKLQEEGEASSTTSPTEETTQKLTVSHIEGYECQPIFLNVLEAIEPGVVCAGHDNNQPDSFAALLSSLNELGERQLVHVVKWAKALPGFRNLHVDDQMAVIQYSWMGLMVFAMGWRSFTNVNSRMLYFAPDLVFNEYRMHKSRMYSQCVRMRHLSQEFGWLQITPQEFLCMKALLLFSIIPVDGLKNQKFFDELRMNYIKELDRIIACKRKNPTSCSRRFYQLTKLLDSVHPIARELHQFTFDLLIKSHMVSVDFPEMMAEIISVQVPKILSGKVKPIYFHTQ
Format: cell-based
Procedure: The compounds ability to antagonize the effects of androgen on the androgen receptor were determined in the protocol described immediately below.
Experimental Procedure for AR Antagonist Cell Assay
Cell line: MDA-MB453-MMTV clone 54-19. This cell line is a stable transfected cell line with MDA-MB453 cell background (human breast tumor cell expressing high level of androgen receptor). A MMTV minimal promoter containing ARE was first cloned in front of a firefly luciferase reporter gene. Then the cascade was cloned into transfection vector pUV120puro. Electroporation method was used for transfecting MDA-MB-453 cell. Puromycin resistant stable cell line was selected.
Cell Culture Media and Reagents:
Culture medium: DMEM (high glucose, Gibco cat #: 11960-044), 10% FBS, and 1% L-glutamine
Plating medium: DMEM (phenol red free), 10% charcoal treated HyClone serum, 1% L-glutamine
Assay medium: DMEM (phenol red free), 1% charcoal treated HyClone serum, 1% L-glutamine, and 1% penicillin/streptomycin
3×luciferase buffer: 2% beta-mercaptoethanol, 0.6% ATP, 0.0135% luciferine in cell lysis buffer
• 1. Cells are maintained in culture medium, splitting cells when they reach 80–90% confluence • 2. To test compounds, 10,000 cells/well are plated to opaque 96 cell culture plate in 100 ul/well plating medium, culture for overnight at 37° C. in cell culture incubator • 3. Carefully remove plating medium, then add 80 ul/well of pre-warmed assay medium, add 10 ul/well testing compound (final concentration at 10 uM or 1 uM), incubate at 37° C. for 30 minutes • 4. Add 10 ul/well freshly prepared DHT (final concentration at 100 pM) to each well, incubate at 37° C. for 17 hr (overnight) • 5. Add 50 ul/well 3×luciferase buffer, incubate at room temperature for 5 minutes, then count on Luminometer
The fold induction over background by 100 pM DHT in the absence of testing compounds is standardized as 100% and experimental result is expressed as percentage of inhibition by testing compounds.

Row | SMILES | pIC50
1 | O=c1cc(C(F)(F)F)c2cc(Cc3ccc(S(=O)(=O)N4CCCC5CCCCC54)cc3)ccc2[nH]1 (centres unmarked) [Example 19, 6-[4-(Octahydroquinoline-1-sulfonyl)benzyl]-4-trifluoromethyl-1H-quinolin-2-one] | < 5.00
2 | COc1cc2c(cc1OC)CN(S(=O)(=O)c1ccc(Cc3ccc4oc(=O)cc(C(F)(F)F)c4c3)cc1)CC2 [Example 35, 6-[4-(6,7-Dimethoxy-3,4-dihydro-1H-isoquinoline-2-sulfonyl)benzyl]-4-trifluoromethylchromen-2-one] | 5.92
3 | O=c1cc(C(F)(F)F)c2cc(Cc3ccc(S(=O)(=O)N4Cc5ccccc5C4)cc3)ccc2o1 [Example 34, 6-[4-(1,3-Dihydroisoindole-2-sulfonyl)benzyl]-4-trifluoromethylchromen-2-one] | 5.35
4 | O=c1cc(C(F)(F)F)c2cc(Cc3ccc(S(=O)(=O)N4CCCC4CO)cc3)ccc2o1 (centres unmarked) [Example 52, 6-[4-(2-Hydroxymethyl-pyrrolidine-1-sulfonyl)benzyl]-4-trifluoromethylchromen-2-one] | 5.47
5 | O=c1cc(C(F)(F)F)c2cc(Cc3ccc(S(=O)(=O)N4CCCCC4CCO)cc3)ccc2o1 (centres unmarked) [Example 51, 6-{4-[2-(2-Hydroxyethyl)piperidine-1-sulfonyl]benzyl}-4-trifluoromethylchromen-2-one] | < 5.00
6 | O=c1cc(C(F)(F)F)c2cc(Cc3ccc(S(=O)(=O)N4CCCCCC4)cc3)ccc2o1 [Example 57, 6-[4-(Azepane-1-sulfonyl)benzyl]-4-trifluoromethylchromen-2-one] | 5.17
7 | CC(C)N(CCN1CCN(S(=O)(=O)c2ccc(Cc3ccc4oc(=O)cc(C(F)(F)F)c4c3)cc2)CC1)C(C)C [Example 44, 6-{4-[4-(2-Diisopropylamino-ethyl)piperazine-1-sulfonyl]benzyl}-4-trifluoromethylchromen-2-one] | 5.28
8 | COC(=O)[C@@H]1CCCN1S(=O)(=O)c1ccc(Cc2ccc3oc(=O)cc(C(F)(F)F)c3c2)cc1 [Example 41, 1-[4-(2-Oxo-4-trifluoromethyl-2H-chromen-6-ylmethyl)-benzenesulfonyl]pyrrolidine-2-carboxylic acidmethyl ester] | < 5.00
9 | CCOC(=O)C1CCN(S(=O)(=O)c2ccc(Cc3ccc4[nH]c(=O)cc(C(F)(F)F)c4c3)cc2)CC1 [Example 4] | < 5.00
10 | O=c1cc(C(F)(F)F)c2cc(Cc3ccc(S(=O)(=O)N4CCCCC4CO)cc3)ccc2[nH]1 (centres unmarked) [Example 7, 6-[4-(2-Hydroxymethylpiperidine-1-sulfonyl)benzyl]-4-trifluoromethyl-1H-quinolin-2-one] | 5.01
11 | CC1CN(S(=O)(=O)c2ccc(Cc3ccc4[nH]c(=O)cc(C(F)(F)F)c4c3)cc2)CC(C)O1 (centres unmarked) [Example 24, 6-[4-(2,6-Dimethylmorpholine-4-sulfonyl)benzyl]-4-trifluoromethyl-1H-quinolin-2-one] | 5.19
12 | O=c1cc(C(F)(F)F)c2cc(Cc3ccc(S(=O)(=O)N4CCCc5ccccc54)cc3)ccc2[nH]1 [Example 26, 6-[4-(3,4-Dihydro-2H-quinoline-1-sulfonyl)benzyl]-4-trifluoromethyl-1H-quinolin-2-one] | 5.70
13 | O=c1cc(C(F)(F)F)c2cc(Cc3ccc(S(=O)(=O)N4CCC5(CC4)OCCO5)cc3)ccc2[nH]1 [Example 6, 6-[4-(1,4-Dioxa-8-azaspiro[4.5]decane-8-sulfonyl)benzyl]-4-trifluoromethyl-1H-quinolin-2-one] | < 5.00
14 | O=c1cc(C(F)(F)F)c2cc(Cc3ccc(S(=O)(=O)N4CCCC5CCCCC54)cc3)ccc2o1 (centres unmarked) [Example 53, 6-[4-(Octahydroquinoline-1-sulfonyl)benzyl]-4-trifluoromethylchromen-2-one] | 5.38
15 | O=c1cc(C(F)(F)F)c2cc(Cc3ccc(S(=O)(=O)N4CCc5ccccc5C4)cc3)ccc2[nH]1 [Example 2, 6-[4-(3,4-Dihydro-1H-isoquinoline-2-sulfonyl)benzyl]-4-trifluoromethyl-1H-quinolin-2-one] | 5.17
16 | O=c1cc(C(F)(F)F)c2cc(Cc3ccc(S(=O)(=O)N4CCC5(CC4)OCCO5)cc3)ccc2o1 [Example 36, 6-[4-(1,4-Dioxa-8-azaspiro[4.5]decane-8-sulfonyl)benzyl]-4-trifluoromethylchromen-2-one] | 5.14
17 | O=c1cc(C(F)(F)F)c2cc(Cc3ccc(S(=O)(=O)N4CCCC(O)C4)cc3)ccc2o1 (centres unmarked) [Example 27, 6-[4-(3-Hydroxypiperidine-1-sulfonyl)benzyl]-4-trifluoromethylchromen-2-one] | < 5.00
18 | O=c1cc(C(F)(F)F)c2cc(Cc3ccc(S(=O)(=O)N4CCC(N5CCCC5)CC4)cc3)ccc2o1 [Example 30, 6-[4-(4-Pyrrolidin-1-ylpiperidine-1-sulfonyl)benzyl]-4-trifluoromethylchromen-2-one] | < 5.00
19 | O=c1cc(C(F)(F)F)c2cc(Cc3ccc(S(=O)(=O)N4CCC4)cc3)ccc2[nH]1 [Example 25, 6-[4-(Azetidine-1-sulfonyl)benzyl]-4-trifluoromethyl-1H-quinolin-2-one] | 5.54
20 | O=c1cc(C(F)(F)F)c2cc(Cc3ccc(S(=O)(=O)N4CCCc5ccccc54)cc3)ccc2o1 [Example 65, 6-[4-(3,4-Dihydro-2H-sulfonyl)benzyl]-4-trifluoromethylchromen-2-one] | 5.23
21 | O=C(CN1CCN(S(=O)(=O)c2ccc(Cc3ccc4[nH]c(=O)cc(C(F)(F)F)c4c3)cc2)CC1)N1CCCC1 [Example 13, 6-{4-[4-(2-Oxo-2-pyrrolidin-1-ylethyl)piperazine-1-sulfonyl]benzyl}-4-trifluoromethyl-1H-quinolin-2-one] | < 5.00
22 | O=c1cc(C(F)(F)F)c2cc(Cc3ccc(S(=O)(=O)N4CCSC4)cc3)ccc2[nH]1 [Example 12, 6-[4-(Thiazolidine-3-sulfonyl)benzyl]-4-trifluoromethyl-1H-quinolin-2-one] | < 5.00
23 | O=c1cc(C(F)(F)F)c2cc(Cc3ccc(S(=O)(=O)N4CCCC(CO)C4)cc3)ccc2o1 (centres unmarked) [Example 45, 6-[4-(3-Hydroxymethyl-piperidine-1-sulfonyl)benzyl]-4-trifluoromethylchromen-2-one] | 5.12
24 | CC1CN(S(=O)(=O)c2ccc(Cc3ccc4oc(=O)cc(C(F)(F)F)c4c3)cc2)CC(C)O1 (centres unmarked) [Example 60, 6-[4-(2,6-Dimethylmorpholine-4-sulfonyl)benzyl]-4-trifluoromethylchromen-2-one] | 6.28
25 | CC1CCCCN1S(=O)(=O)c1ccc(Cc2ccc3[nH]c(=O)cc(C(F)(F)F)c3c2)cc1 (centres unmarked) [Example 22, 6-[4-(2-Methylpiperidine-1-sulfonyl)benzyl]-4-trifluoromethyl-1H-quinolin-2-one] | < 5.00
26 | CC1CCCCN1S(=O)(=O)c1ccc(Cc2ccc3oc(=O)cc(C(F)(F)F)c3c2)cc1 (centres unmarked) [Example 58, 6-[4-(2-Methylpiperidine-1-sulfonyl)benzyl]-4-trifluoromethylchromen-2-one] | 5.01
27 | O=c1cc(C(F)(F)F)c2cc(Cc3ccc(S(=O)(=O)N4CCSC4)cc3)ccc2o1 [Example 46, 6-[4-(Thiazolidine-3-sulfonyl)benzyl]-4-trifluoromethylchromen-2-one] | < 5.00
28 | O=c1cc(C(F)(F)F)c2cc(Cc3ccc(S(=O)(=O)N4CCN(CCO)CC4)cc3)ccc2o1 [Example 43, 6-{4-[4-(2-Hydroxyethyl)piperazine-1-sulfonyl]benzyl}-4-trifluoromethylchromen-2-one] | 5.05
29 | O=c1cc(C(F)(F)F)c2cc(Cc3ccc(S(=O)(=O)N4CCCCCCC4)cc3)ccc2o1 [Example 63, 6-[4-(Azocane-1-sulfonyl)benzyl]-4-trifluoromethylchromen-2-one] | < 5.00
